Assay results reported in patent publication US20080171697A1, “Peptides Having For Example Antiangiogenic Activity and Applications Thereof In Therapeutics” (priority 2003, published 2008).
Positions of bridges follow the written chain, without caps; N, C: chain ends. No end group written: not given here.

Tests used:
HUVEC cells [1] = test: Drop in mitochondrial membrane potential in cellula (JC-1, microscope); assay type: cell-based, human; settings: HUVEC cells treated for 16-24 h with 15 μM, JC-1 labeling
HUVECs [2] = test: Intracellular routing of TEAM-VP (confocal microscope); assay type: cell-based, human; settings: for codistribution with the lysosomes (anti-Lamp2-FITC): Streptavidin-Texas Red; for codistribution with the mitochondria (anti-VDAC): Streptavidin-FITC
Method: HUVECs treated with TEAM-VP for 8, 24 and 32 h are observed using a confocal microscope.

HUVECs [3] = test: Study of the peptide entry process in HUVECs; assay type: cell-based, human; settings: for entry of the peptide into HUVECs: cotreatment with dextran beads for 5 h
Text: No entry of the FITC-CycRAD peptide into HUVECs, nor entry of the FITC-CycRGD peptide into HeLas is observed.

HUVEC cells [4] = test: Cytochrome c release in cellula (microscopy, anti-cytochrome c and anti-VDAC); assay type: cell-based, human; settings: 24 h of treatment, 10 μM
[5] = target: T1, αVβ3 integrins at the surface of endothelial cells (human, UniProt P06756 31-1048; P05106 27-788); test: peptide brought into contact with endothelial cells; endocytosis, confocal microscopy
T1 construct: whole, on cells; Native integrin on HUVEC cells; the cells also carry other integrins (αVβ5 was stained as well); also called αVβ3 receptors

[6] = target: T1, αVβ3 integrins at the surface of …; test: flow cytometry of FITC-labeled peptide on HUVEC cells (FIG. 2)
Method: The HUVEC cells were or were not preincubated for 30 min at ambient temperature with 200 μM of nonlabeled CycRGD peptide before the addition of FITC-CycRGD peptide (10 μM) for 45 min., and were analyzed by flow cytometry (FIG. 2b).

T1 sequence (P06756 31-1048, chain 1 of 2): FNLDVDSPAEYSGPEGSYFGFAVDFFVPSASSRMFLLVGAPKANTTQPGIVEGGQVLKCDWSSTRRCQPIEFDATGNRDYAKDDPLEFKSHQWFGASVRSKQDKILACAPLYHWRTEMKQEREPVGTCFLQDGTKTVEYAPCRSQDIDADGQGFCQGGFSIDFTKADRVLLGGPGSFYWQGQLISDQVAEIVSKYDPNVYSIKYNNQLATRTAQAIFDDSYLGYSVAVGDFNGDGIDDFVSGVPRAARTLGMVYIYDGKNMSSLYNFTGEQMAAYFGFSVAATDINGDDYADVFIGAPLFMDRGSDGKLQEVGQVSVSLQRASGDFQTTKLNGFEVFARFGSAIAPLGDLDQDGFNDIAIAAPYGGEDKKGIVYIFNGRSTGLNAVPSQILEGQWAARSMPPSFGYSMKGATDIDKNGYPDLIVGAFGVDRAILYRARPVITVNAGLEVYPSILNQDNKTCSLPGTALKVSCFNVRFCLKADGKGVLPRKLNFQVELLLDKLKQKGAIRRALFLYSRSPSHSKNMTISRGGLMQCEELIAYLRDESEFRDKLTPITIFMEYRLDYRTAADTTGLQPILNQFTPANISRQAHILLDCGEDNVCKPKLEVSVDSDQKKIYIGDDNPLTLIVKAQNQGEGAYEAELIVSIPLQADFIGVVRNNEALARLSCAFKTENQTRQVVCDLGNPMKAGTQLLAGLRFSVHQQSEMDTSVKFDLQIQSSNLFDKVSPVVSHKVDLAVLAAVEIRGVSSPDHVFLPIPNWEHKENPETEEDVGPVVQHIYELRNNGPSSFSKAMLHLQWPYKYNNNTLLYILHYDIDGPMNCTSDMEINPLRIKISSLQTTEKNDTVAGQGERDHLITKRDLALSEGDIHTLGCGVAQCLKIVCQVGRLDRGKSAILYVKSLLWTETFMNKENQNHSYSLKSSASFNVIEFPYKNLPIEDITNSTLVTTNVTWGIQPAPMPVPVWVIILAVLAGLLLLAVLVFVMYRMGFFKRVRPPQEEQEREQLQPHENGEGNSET
T1 sequence (P05106 27-788, chain 2 of 2): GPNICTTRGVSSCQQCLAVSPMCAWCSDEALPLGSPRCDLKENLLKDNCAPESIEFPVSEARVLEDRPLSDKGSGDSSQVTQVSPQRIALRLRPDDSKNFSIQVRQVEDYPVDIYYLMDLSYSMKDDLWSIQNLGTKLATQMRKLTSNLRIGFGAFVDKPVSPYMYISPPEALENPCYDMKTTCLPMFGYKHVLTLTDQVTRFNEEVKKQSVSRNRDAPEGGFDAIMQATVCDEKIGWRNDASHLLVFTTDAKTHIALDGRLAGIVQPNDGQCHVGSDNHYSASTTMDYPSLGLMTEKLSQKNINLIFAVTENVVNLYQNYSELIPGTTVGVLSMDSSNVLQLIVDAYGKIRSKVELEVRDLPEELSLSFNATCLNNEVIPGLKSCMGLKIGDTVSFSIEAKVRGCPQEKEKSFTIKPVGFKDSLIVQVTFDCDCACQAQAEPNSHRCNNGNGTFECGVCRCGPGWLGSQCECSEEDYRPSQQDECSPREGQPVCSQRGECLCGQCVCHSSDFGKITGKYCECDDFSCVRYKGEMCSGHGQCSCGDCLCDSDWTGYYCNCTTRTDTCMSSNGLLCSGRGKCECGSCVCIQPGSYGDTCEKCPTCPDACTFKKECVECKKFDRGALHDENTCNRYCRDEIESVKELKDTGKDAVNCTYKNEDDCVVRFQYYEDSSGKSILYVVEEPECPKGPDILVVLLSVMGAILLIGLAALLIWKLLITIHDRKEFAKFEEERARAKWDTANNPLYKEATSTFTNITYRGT

## GG*CRGDMFG*C-GG-LLFIHFRIGSRHSRIG-amide (GGCRGDMFGCGGLLFIHFRIGSRHSRIG-NH2; disulfide 3-10; N-terminus assumed; SMILES CC[C@H](C)[C@H](NC(=O)[C@H](CCCNC(=N)N)NC(=O)[C@H](CO)NC(=O)[C@H](Cc1c[nH]cn1)NC(=O)[C@H](CCCNC(=N)N)NC(=O)[C@H](CO)NC(=O)CNC(=O)[C@@H](NC(=O)[C@H](CCCNC(=N)N)NC(=O)[C@H](Cc1ccccc1)NC(=O)[C@H](Cc1c[nH]cn1)NC(=O)[C@@H](NC(=O)[C@H](Cc1ccccc1)NC(=O)[C@H](CC(C)C)NC(=O)[C@H](CC(C)C)NC(=O)CNC(=O)CNC(=O)[C@@H]1CSSC[C@H](NC(=O)CNC(=O)CN)C(=O)N[C@@H](CCCNC(=N)N)C(=O)NCC(=O)N[C@@H](CC(=O)O)C(=O)N[C@@H](CCSC)C(=O)N[C@@H](Cc2ccccc2)C(=O)NCC(=O)N1)[C@@H](C)CC)[C@@H](C)CC)C(=O)NCC(N)=O) [TEAM-VP]
HUVEC cells [1]
  drop in mitochondrial membrane potential in cellula: Drop in potential observed
HUVECs [2]; 8 h of treatment
  codistribution with the lysosomes (anti-Lamp2-FITC): codistributes with the lysosomes
HUVECs [2]; 24 h
  codistribution with the mitochondria (anti-VDAC): partially codistributes
HUVECs [2]; 24 h of treatment
  codistribution with the lysosomes (anti-Lamp2-FITC): would appear to leave these organelles
HUVECs [2]; 32 h
  codistribution with the mitochondria (anti-VDAC): totally codistributes
HUVECs [2]; throughout the treatment (8, 24 and 32 h)
  codistribution with the Golgi apparatus (anti-Golgin): No codistribution
HUVECs [3]; HUVECs, treatment with sodium azide+deoxyglucose
  entry of the peptide under sodium azide+deoxyglucose: inhibited by treatment with sodium azide+deoxyglucose
HUVEC cells [4]
  release of cytochrome c in cellula: Release of cytochrome C observed

## GG*CRGDMFG*CGG-amide (GGCRGDMFGCGG-NH2; disulfide 3-10; also: labeled with FITC in the binding assays) [FITC-CycRGD]
HUVECs [3]; HUVECs, cotreatment for 5 h
  colocalization with dextran beads: colocalize with dextran beads
HUVECs [3]
  entry of the peptide into HUVECs: enter the HUVECs

## GG*CRADMFG*CGG-amide (FITC, cyclised, GG/CGG flanks, amide) [FITC-CycRAD]
HUVECs [3]
  entry of the peptide into HUVECs: No entry

B1: TEAM-VP (SEQ ID No 2: GG*CRGDMFG*C-GG-[…]-amide) (peptide)
peptide: GGCRGDMFGCGGLLFIHFRIGSRHSRIG-NH2
modifications: disulfide 3-10; not fully specified; also: with or without biotin, FITC label also used
notes: also called chimeric peptide
[5]
  binding result: binds

B2: GG*CRGDMFG*CGG-amide (CycRGD) (peptide)
peptide: GGCRGDMFGCGG-NH2
modifications: disulfide 3-10; also: labeled with FITC in the binding assays
notes: Cyclised targeting part of TEAM-VP; also called FITC-CycRGD; CycRGD peptide
[6]
  binding result: binds
